We go through 21 compounds from patent publication EP4722213A1, “NITROGEN-CONTAINING FUNCTIONAL GROUP-SUBSTITUTED PYRIDAZINOPYRIDONE DERIVATIVE AND USE THEREOF” (Sichuan Huiyu Pharmaceutical Co., Ltd., priority 2023, dated 2024).

This assay deals with T1, SOS1 (Homo sapiens, UniProt Q07889).
T1 sequence (Q07889 1-1333): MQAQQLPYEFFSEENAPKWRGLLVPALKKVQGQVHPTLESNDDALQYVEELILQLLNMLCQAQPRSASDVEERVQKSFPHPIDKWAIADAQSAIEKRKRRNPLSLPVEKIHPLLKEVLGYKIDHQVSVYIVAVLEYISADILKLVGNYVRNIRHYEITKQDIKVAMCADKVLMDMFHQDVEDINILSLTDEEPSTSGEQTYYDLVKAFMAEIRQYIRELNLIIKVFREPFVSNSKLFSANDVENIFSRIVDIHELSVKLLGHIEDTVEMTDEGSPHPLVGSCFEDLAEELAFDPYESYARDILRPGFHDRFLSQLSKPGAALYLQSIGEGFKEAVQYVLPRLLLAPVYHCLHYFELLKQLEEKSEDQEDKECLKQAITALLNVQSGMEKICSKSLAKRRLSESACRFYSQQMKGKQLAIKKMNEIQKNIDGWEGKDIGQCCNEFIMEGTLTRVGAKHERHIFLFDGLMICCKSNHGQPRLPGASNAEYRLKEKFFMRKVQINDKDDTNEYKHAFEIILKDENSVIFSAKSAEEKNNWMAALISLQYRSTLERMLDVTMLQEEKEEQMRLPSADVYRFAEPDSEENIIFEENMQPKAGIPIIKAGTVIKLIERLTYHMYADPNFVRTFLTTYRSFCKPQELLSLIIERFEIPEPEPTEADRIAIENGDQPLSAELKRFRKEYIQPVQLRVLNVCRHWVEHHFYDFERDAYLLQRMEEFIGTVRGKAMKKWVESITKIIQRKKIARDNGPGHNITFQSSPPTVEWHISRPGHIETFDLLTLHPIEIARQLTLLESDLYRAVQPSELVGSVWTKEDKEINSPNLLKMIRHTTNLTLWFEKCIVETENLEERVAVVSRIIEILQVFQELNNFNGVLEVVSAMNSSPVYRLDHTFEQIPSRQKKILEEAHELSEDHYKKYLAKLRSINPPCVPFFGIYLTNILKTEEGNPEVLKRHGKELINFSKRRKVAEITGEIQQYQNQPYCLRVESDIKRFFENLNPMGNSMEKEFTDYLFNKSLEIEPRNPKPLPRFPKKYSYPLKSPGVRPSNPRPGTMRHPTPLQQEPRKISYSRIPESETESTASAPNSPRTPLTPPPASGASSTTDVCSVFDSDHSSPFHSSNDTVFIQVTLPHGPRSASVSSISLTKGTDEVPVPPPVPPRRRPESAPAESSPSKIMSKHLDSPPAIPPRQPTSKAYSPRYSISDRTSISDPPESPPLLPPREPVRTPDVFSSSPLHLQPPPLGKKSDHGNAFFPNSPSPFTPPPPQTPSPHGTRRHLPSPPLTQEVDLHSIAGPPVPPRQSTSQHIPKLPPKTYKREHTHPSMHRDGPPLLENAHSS
The assay can be described thus: biochemical.

Counter-ions that a name gives are not always drawn.

The compound `Cc1c(C#N)cccc1[C@@H](C)Nc1nnc(N2CCN(C)CC2)c2cc(=O)n(C3CCN(C)CC3)cc12` [Example 135, (R)-2-methyl-3-(1-((1-(4-methylpiperazin-1-yl)-6-(1-methylpiperidin-4-yl)-7-oxo-6,7-dihydropyrido[3,4-d]pyridazin-4-yl)amino)ethyl)benz onitrile formate] yielded an IC50 of 14.1 nM. For `C[C@@H](Nc1nnc(N2CCN(C)CC2)c2cc(=O)n(N3CC4CCCC4C3)cc12)c1cccc(C(F)F)c1F` (stereo partly drawn) [Example 136, 4-(((R)-1-(3-(difluoromethyl)-2-fluorophenyl)ethyl)amino)-6-(hexahydrocyclopenta[c]pyrrol-2(1H)-yl)-1-(4-methylpiperazin-1-yl)pyrido[3,4-d]pyridazin-7(6H)-one formate], the IC50 is 6.2 nM. Under `C[C@@H](Nc1nnc(N2CC[C@@H](O)C2)c2cc(=O)n(C3(C)CC3)cc12)c1cccc(C(F)F)c1F` [Example 137, 4-(((R)-1-(3-(difluoromethyl)-2-fluorophenyl)ethyl)amino)-1-((R)-3-hydroxypyrrolidin-1-yl)-6-(1-methylcyclopropyl) pyrido[3,4-d]pyridazin-7(6H)-one formate] stands 4.8 nM; under `C[C@@H](Nc1nnc(N2CCN(C)CC2)c2cc(=O)n(C)cc12)c1cccc(C(F)F)c1F` [Example 138, (R)-4-((1-(3-(difluoromethyl)-2-fluorophenyl)ethyl)amino)-6-methyl-1-(4-methylpiperazin-1-yl)pyrido[3,4-d]pyridazin-7(6H)-one formate], 10.7 nM.

As to `C[C@@H](Nc1nnc(N2CCC[C@@H]2CO)c2cc(=O)n(C3(C)CC3)cc12)c1cccc(C(F)F)c1F` [Example 139, 4-(((R)-1-(3-(difluoromethyl)-2-fluorophenyl)ethyl)amino)-1-((R)-2-(hydroxymethyl)pyrrolidin-1-yl)-6-(1-methylcyclopropyl) pyrido[3,4-d]pyridazin-7(6H)-one], the IC50 was found to be 6.2 nM.

`C[C@@H](Nc1nnc(N2CCN(C3CCCC3)CC2)c2cc(=O)n(N3CC4CCCC4C3)cc12)c1cccc(C(F)F)c1F` (stereo partly drawn) [Example 140, 4-(((R)-1-(3-(difluoromethyl)-2-fluorophenyl)ethyl)amino)-6-(hexahydrocyclopenta[c]pyrrol-2(1H)-yl)-1-(4-cyclopentylpiperazin-1-yl)-pyrido[3,4-d]pyridazin-7(6H)-one] yielded an IC50 of 8.5 nM. In the case of `Cc1cc(N)cc([C@@H](C)Nc2nnc(N3CCN(C)CC3)c3cc(=O)n(C4CC4)cc23)c1F` [Example 141, (R)-4-((1-(5-amino-2-fluoro-3-methylphenyl)ethyl)amino)-6-cyclopropyl-1-(4-methylpiperazin-1-yl)pyrido[3,4-d]pyridazin-7(6H)-one] it was 7.8 nM; in that of `C[C@@H](Nc1nnc(N2CCN(C3CC3)CC2)c2cc(=O)n(N3CC4CCCC4C3)cc12)c1cccc(C(F)F)c1F` (stereo partly drawn) [Example 142, 4-(((R)-1-(3-(difluoromethyl)-2-fluorophenyl)ethyl)amino)-6-(hexahydrocyclopenta[c]pyrrol-2(1H)-yl)-1-(4-cyclopropylpiperazin-1-yl)-pyrido[3,4-d]pyridazin-7(6H)-one], 10.6 nM; in that of `Cc1cc(N)cc([C@@H](C)Nc2nnc(N3CCN(C4CC4)CC3)c3cc(=O)n(C4CC4)cc23)c1F` [Example 143, (R)-4-((1-(5-amino-2-fluoro-3-methylphenyl)ethyl)amino)-6-cyclopropyl-1-(4-cyclopropylpiperazin-1-yl)pyrido[3,4-d]pyridazin-7(6H)-one], 11.5 nM.

Consider `CCN1CCN(c2nnc(N[C@H](C)c3cc(N)cc(C)c3F)c3cn(C4CC4)c(=O)cc23)CC1` [Example 144, (R)-4-((1-(5-amino-2-fluoro-3-methylphenyl)ethyl)amino)-6-cyclopropyl-1-(4-ethylpiperazin-1-yl)pyrido[3,4-d]pyridazin-7(6H)-one formate], for which half-maximal inhibition (IC50) required 6.7 nM. Under `CCN1CCN(c2nnc(N[C@H](C)c3cccc(C#N)c3C)c3cn(C)c(=O)cc23)CC1` [Example 145, (R)-3-(1-((1-(4-ethylpiperazin-1-yl)-6-methyl-7-oxo-6,7-dihydropyrido[3,4-d]pyridazin-4-yl)amino)ethyl)-2-methylbenzonitrile formate] stands 7.8 nM. `C[C@@H](Nc1nnc(N2CCN(C3CCCC3)CC2)c2cc(=O)n(C)cc12)c1cccc(C(F)F)c1F` [Example 146, (R)-1-(4-cyclopentylpiperazin-1-yl)-4-((1-(3-(difluoromethyl)-2-fluorophenyl)ethyl)amino)-6-methylpyrido[3,4-d]pyridazin-7(6H)-one] displayed a half-inhibitory concentration (IC50) of 12.5 nM. Under `Cc1cc(N)cc([C@@H](C)Nc2nnc(N3CCN(C(C)C)CC3)c3cc(=O)n(C4CC4)cc23)c1F` [Example 147, (R)-4-((1-(5-amino-2-fluoro-3-methylphenyl)ethyl)amino)-6-cyclopropyl-1-(4-isopropylpiperazin-1-yl)pyrido[3,4-d]pyridazin-7(6H)-one formate] stands 6.3 nM; under `Cc1cc(N)cc([C@@H](C)Nc2nnc(N3CCN(C4CCCC4)CC3)c3cc(=O)n(C4CC4)cc23)c1F` [Example 148, (R)-4-((1-(5-amino-2-fluoro-3-methylphenyl)ethyl)amino)-1-(4-cyclopentylpiperazin-1-yl)-6-cyclopropylpyrido[3 ,4-d]pyridazin-7(6H)-one], 6.5 nM; under `CC(C)N1CCN(c2nnc(N[C@H](C)c3cccc(C(F)F)c3F)c3cn(N4CC5CCCC5C4)c(=O)cc23)CC1` (stereo partly drawn) [Example 149, 4-(((R)-1-(3-(difluoromethyl)-2-fluorophenyl)ethyl)amino)-6-(hexahydrocyclopenta[c]pyrrol-2(1H)-yl)-1-(4-isopropylpiperazin-1-yl)pyrido[3,4-d]pyridazin-7(6H)-one], 8.6 nM. `Cc1c(C#N)cccc1[C@@H](C)Nc1nnc(N2CCN(C)CC2)c2cc(=O)n(N3CC4CCCC4C3)cc12` (stereo partly drawn) [Example 150, 3-((1R)-1-((6-(hexahydrocyclopenta[c]pyrrol-2(1H)-yl)-1-(4-methylpiperazin-1-yl)-7-oxo-6,7-dihydropyrido[3,4-d]pyridazin-4-yl)amino)ethyl)-2-methylbenzonitrile] returned an IC50 of 5.5 nM.

Compound `Cc1cc(N)cc([C@@H](C)Nc2nnc(N3CCN(C)CC3)c3cc(=O)n(C4(C)CC4)cc23)c1F` [Example 152, (R)-4-((1-(5-amino-2-fluoro-3-methylphenyl)ethyl)amino)-6-(1-methylcyclopropyl)-1-(4-methylpiperazin-1-yl)pyrido[3,4-d]pyridazin-7(6H)-one] returned a half-inhibitory concentration (IC50) of 4.2 nM.

For the compound `CCN1CCN(c2nnc(N[C@H](C)c3cccc(C#N)c3C)c3cn(N4CC5CCCC5C4)c(=O)cc23)CC1` (stereo partly drawn) [Example 153, 3-((1R)-1-((6-(hexahydrocyclopenta[c]pyrrol-2(1H)-yl)-1-(4-ethylpiperazin-1-yl)-7-oxo-6,7-dihydropyrido[3,4-d]pyridazin-4-yl)amino)ethyl)-2-methylbenzonitrile], the IC50 worked out at 4.6 nM. Compound `C[C@@H](Nc1nnc(N2CCN(CC3CC3)CC2)c2cc(=O)n(N3CCN(C)CC3)cc12)c1cccc(C(F)F)c1F` [Example 154, (R)-1-(4-(cyclopropylmethyl)piperazin-1-yl)-4-((1-(3-(difluoromethyl)-2-fluorophenyl)ethyl)amino)-6-(4-methylpiperazin-1-yl)pyrido[3,4-d]pyridazin-7(6H)-one] yielded a 50% inhibitory concentration (IC50) of 5.4 nM.

In turn, `CC(C)N1CCN(c2nnc(N[C@H](C)c3cccc(C(F)(F)F)c3)c3cn(C4(C)CC4)c(=O)cc23)CC1` [Example 155, (R)-1-(4-isopropylpiperazin-1-yl)-6-(1-methylcyclopropyl)-4-((1-(3-(trifluoromethyl)phenyl)ethyl)amino)pyr ido[3,4-d]pyridazin-7(6H)-one formate] gave a concentration for half-maximal inhibition (IC50) of 5.6 nM. Compound `C[C@@H](Nc1nnc(NN2CCOCC2)c2cc(=O)n(C3(C)CC3)cc12)c1cccc(C(F)(F)F)c1` [Example 158, (R)-6-(1-methylcyclopropyl)-1-(morpholinoamino)-4-((1-(3-(trifluoromethyl)phenyl)ethyl)amino)pyr ido[3,4-d]pyridazin-7(6H)-one formate] gave an IC50 of 6.9 nM.

As a reminder, the IC50 is the concentration at which inhibition is half-maximal. The low end stands for greater potency, the high end for weaker potency.
